Data taken from US9423396B2, “Bodipy structure fluorescence probes for diverse biological applications” (National University of Singapore, priority 2011, dated 2016).

Test: Spectroscopic measurements (absorption, emission, quantum yield, extinction coefficient)
Assay type: physicochemical
[1] = BDNCA library, difference emission minus absorption
[2] = BDNCA library, extinction coefficient; in M-1 cm-1 (unit assumed)
[3] = BDNCA library, fluorescence emission
[4] = absorption maximum, BDNCA library
[5] = difference of emission and absorption maxima
[6] = extinction coefficient, BDNCA library; in M-1 cm-1 (unit assumed)
[7] = fluorescence emission maximum, BDNCA library

SMILES | Qunt. Yield (BDNCA library) | Abs (BDNCA library, absorption) | Flu-Abs [1] | ε [2] | Flu [3] | Abs [4] | Flu-Abs [5] | ε [6] | Flu [7] | Qunt. Yield (quantum yield, BDNCA library)
Cc1cc(/C=C/c2ccc3c4c(cccc24)CC3)n2c1C(c1ccc(NC(=O)CCl)cc1)=C1C=CC=[N+]1[B-]2(F)F [BDNCA-89] | 0.08 | 580 nm | 54 | 33,501 | 634 |  |  |  |  | 
COc1cccc(/C=C/C2=[N+]3C(=C(c4ccc(NC(=O)CCl)cc4)c4cccn4[B-]3(F)F)C(C)=C2)c1Cl [BDNCA-281] | 0.14 | 556 nm | 20 | 79,908 | 576 |  |  |  |  | 
COc1cccc(/C=C/C2=[N+]3C(=C(c4ccc(NC(=O)CCl)cc4)c4cccn4[B-]3(F)F)C(C)=C2)c1F [BDNCA-314] |  |  |  |  |  | 554 nm | 21 | 52,998 | 575 | 0.11
CCCCN(CCCC)c1ccc(/C=C/C2=[N+]3C(=C(c4ccc(NC(=O)CCl)cc4)c4cccn4[B-]3(F)F)C(C)=C2)cc1 [BDNCA-17] | weak | 627 nm |  | 52,998 | weak |  |  |  |  | 
CCCCOc1ccc(/C=C/C2=[N+]3C(=C(c4ccc(NC(=O)CCl)cc4)c4cccn4[B-]3(F)F)C(C)=C2)cc1 [BDNCA-46] | 0.10 | 566 nm | 32 | 42,563 | 598 |  |  |  |  | 
CC1=CC(/C=C/c2cccs2)=[N+]2C1=C(c1ccc(NC(=O)CCl)cc1)c1cccn1[B-]2(F)F [BDNCA-423] |  |  |  |  |  | 569 nm | 25 | 61,510 | 594 | 0.10
CC1=CC(/C=C/C=C/c2ccc(N(C)C)cc2)=[N+]2C1=C(c1ccc(NC(=O)CCl)cc1)c1cccn1[B-]2(F)F [BDNCA-96] | weak | 622 nm |  | 50,801 | weak |  |  |  |  | 
COc1cc(/C=C/C2=[N+]3C(=C(c4ccc(NC(=O)CCl)cc4)c4cccn4[B-]3(F)F)C(C)=C2)cc(OC)c1O [BDNCA-95] | 0.01 | 574 nm | 6 | 31,579 | 580 |  |  |  |  | 
Cc1cc(/C=C/c2ccc(SC(F)(F)F)cc2)n2c1C(c1ccc(NC(=O)CCl)cc1)=C1C=CC=[N+]1[B-]2(F)F [BDNCA-363] |  |  |  |  |  | 558 nm | 18 | 41,190 | 576 | 0.08
CC1=CC(/C=C/c2ccc(OC(F)(F)F)cc2)=[N+]2C1=C(c1ccc(NC(=O)CCl)cc1)c1cccn1[B-]2(F)F [BDNCA-68] | 0.05 | 553 nm | 20 | 27,735 | 573 |  |  |  |  | 
COc1ccc(/C=C/c2cc(C)c3n2[B-](F)(F)[N+]2=CC=CC2=C3c2ccc(NC(=O)CCl)cc2)c(Cl)c1OC [BDNCA-372] |  |  |  |  |  | 565 nm | 29 | 69,474 | 594 | 0.13
COc1ccc(/C=C/c2cc(C)c3n2[B-](F)(F)[N+]2=CC=CC2=C3c2ccc(NC(=O)CCl)cc2)cc1 [BDNCA-110] | 0.16 | 566 nm | 30 | 56,568 | 596 |  |  |  |  | 
CCCc1ccc(/C=C/C2=[N+]3C(=C(c4ccc(NC(=O)CCl)cc4)c4cccn4[B-]3(F)F)C(C)=C2)cc1 [BDNCA-77] | 0.09 | 559 nm | 22 | 45,034 | 581 |  |  |  |  | 
CC1=CC(/C=C/c2cccc(OC(F)(F)C(F)F)c2)=[N+]2C1=C(c1ccc(NC(=O)CCl)cc1)c1cccn1[B-]2(F)F [BDNCA-345] |  |  |  |  |  | 621 nm |  | 12,082 | weak | weak
CCN(CC)c1ccc(/C=C/C2=[N+]3C(=C(c4ccc(NC(=O)CCl)cc4)c4cccn4[B-]3(F)F)C(C)=C2)cc1 [BDNCA-107] | weak | 624 nm |  | 56,018 | weak |  |  |  |  | 
CCCCCCOc1ccc(/C=C/C2=[N+]3C(=C(c4ccc(NC(=O)CCl)cc4)c4cccn4[B-]3(F)F)C(C)=C2)cc1 [BDNCA-45] | 0.13 | 566 nm | 32 | 82,929 | 598 |  |  |  |  | 
COc1ccc(-c2ccc(/C=C/C3=[N+]4C(=C(c5ccc(NC(=O)CCl)cc5)c5cccn5[B-]4(F)F)C(C)=C3)o2)cc1Cl [BDNCA-195] | 0.01 | 605 nm |  | 21,968 | 681 |  |  |  |  | 
CC1=CC(/C=C/c2ccc(-c3cncnc3)cc2)=[N+]2C1=C(c1ccc(NC(=O)CCl)cc1)c1cccn1[B-]2(F)F [BDNCA-199] | 0.15 | 563 nm | 20 | 59,314 | 583 |  |  |  |  | 
Cc1cc(/C=C/c2cc(F)ccc2O)n2c1C(c1ccc(NC(=O)CCl)cc1)=C1C=CC=[N+]1[B-]2(F)F [BDNCA-318] |  |  |  |  |  | 564 nm | 25 | 18,398 | 589 | 0.02

SMILES | Qunt. Yield (BDNCA library) | Abs (BDNCA library, absorption) | Flu-Abs [1] | ε [2] | Flu [3] | Abs [4] | Flu-Abs [5] | ε [6] | Flu [7] | Qunt. Yield (quantum yield, BDNCA library)
COc1cc(/C=C/C2=[N+]3C(=C(c4ccc(NC(=O)CCl)cc4)c4cccn4[B-]3(F)F)C(C)=C2)cc(Cl)c1O [BDNCA-29] | 0.01 | 567 nm | 30 | 25,812 | 597 |  |  |  |  | 
CC1=CC(/C=C/c2cccc([N+](=O)[O-])c2O)=[N+]2C1=C(c1ccc(NC(=O)CCl)cc1)c1cccn1[B-]2(F)F [BDNCA-315] |  |  |  |  |  | 655 nm |  | 15,652 | weak | weak
CC1=CC(/C=C/c2cccc(I)c2)=[N+]2C1=C(c1ccc(NC(=O)CCl)cc1)c1cccn1[B-]2(F)F [BDNCA-303] | 0.12 | 556 nm | 19 | 70,847 | 575 |  |  |  |  | 
CSc1ccccc1/C=C/C1=[N+]2C(=C(c3ccc(NC(=O)CCl)cc3)c3cccn3[B-]2(F)F)C(C)=C1 [BDNCA-333] |  |  |  |  |  | 560 nm | 26 | 63,707 | 586 | 0.12
CC(=O)Oc1ccc(/C=C/c2cc(C)c3n2[B-](F)(F)[N+]2=CC=CC2=C3c2ccc(NC(=O)CCl)cc2)cc1 [BDNCA-41] |  |  |  |  |  | 565 nm | 29 | 47,780 | 594 | 0.13
COc1cc2ccccc2c(/C=C/C2=[N+]3C(=C(c4ccc(NC(=O)CCl)cc4)c4cccn4[B-]3(F)F)C(C)=C2)c1OC [BDNCA-301] | 0.24 | 567 nm | 36 | 85,950 | 603 |  |  |  |  | 
CC1=CC(/C=C/c2ccccc2C)=[N+]2C1=C(c1ccc(NC(=O)CCl)cc1)c1cccn1[B-]2(F)F [BDNCA-143] | 0.13 | 555 nm | 22 | 50,801 | 577 |  |  |  |  | 
COc1ccc(Br)cc1/C=C/c1cc(C)c2n1[B-](F)(F)[N+]1=CC=CC1=C2c1ccc(NC(=O)CCl)cc1 [BDNCA-54] | 0.07 | 562 nm | 19 | 38,169 | 581 |  |  |  |  | 
COc1cccc(Oc2ccccc2/C=C/C2=[N+]3C(=C(c4ccc(NC(=O)CCl)cc4)c4cccn4[B-]3(F)F)C(C)=C2)c1 [BDNCA-298] | 0.14 | 558 nm | 23 | 67,277 | 581 |  |  |  |  | 
COc1cc(OC)c(/C=C/C2=[N+]3C(=C(c4ccc(NC(=O)CCl)cc4)c4cccn4[B-]3(F)F)C(C)=C2)c(OC)c1 [BDNCA-82] | 0.04 | 582 nm | 50 | 18,398 | 632 |  |  |  |  | 
COc1cc(Br)cc(/C=C/C2=[N+]3C(=C(c4ccc(NC(=O)CCl)cc4)c4cccn4[B-]3(F)F)C(C)=C2)c1OC [BDNCA-228] | 0.13 | 558 nm | 19 | 63,707 | 577 |  |  |  |  | 
Cc1cc(/C=C/c2ccc(Oc3ccc(C=O)cc3)cc2)n2c1C(c1ccc(NC(=O)CCl)cc1)=C1C=CC=[N+]1[B-]2(F)F [BDNCA-304] | 0.02 | 561 nm | 25 | 18,673 | 586 |  |  |  |  | 
Cc1cc(/C=C/c2ccc(OCc3ccc(F)cc3)cc2)n2c1C(c1ccc(NC(=O)CCl)cc1)=C1C=CC=[N+]1[B-]2(F)F [BDNCA-378] |  |  |  |  |  | 566 nm | 31 | 92,540 | 597 | 0.16
COc1cccc(/C=C/C2=[N+]3C(=C(c4ccc(NC(=O)CCl)cc4)c4cccn4[B-]3(F)F)C(C)=C2)c1 [BDNCA-186] | 0.14 | 556 nm | 20 | 61,510 | 576 |  |  |  |  | 
CC1=CC(/C=C/c2c(C)cc(C)cc2C)=[N+]2C1=C(c1ccc(NC(=O)CCl)cc1)c1cccn1[B-]2(F)F [BDNCA-108] | 0.10 | 549 nm | 33 | 39,542 | 582 |  |  |  |  | 
COc1ccc(/C=C/c2cc(C)c3n2[B-](F)(F)[N+]2=CC=CC2=C3c2ccc(NC(=O)CCl)cc2)c(OC)c1 [BDNCA-206] | 0.13 | 574 nm | 44 | 44,485 | 618 |  |  |  |  | 
CC1=CC(/C=C/c2ccc(C)c(F)c2)=[N+]2C1=C(c1ccc(NC(=O)CCl)cc1)c1cccn1[B-]2(F)F [BDNCA-249] | 0.12 | 556 nm | 21 | 71,945 | 577 |  |  |  |  | 
COC(=O)c1ccc(-c2ccc(/C=C/C3=[N+]4C(=C(c5ccc(NC(=O)CCl)cc5)c5cccn5[B-]4(F)F)C(C)=C3)cc2)cc1 [BDNCA-179] | 0.14 | 566 nm | 23 | 52,998 | 589 |  |  |  |  | 
